Experiments:
[1] = tested on: LIPG mRNA; assay: DNA microarray gene expression profile in HepG2 cells (Test Example 2), LIPG; type: cell-based, human; details: 24 hours, treated vs untreated cells
Method: (§1) A compound of a test compound group was added to cells of a human hepatocellular carcinoma cell line HepG2, and the cells were then cultured for 24 hours. Thereafter, the gene expression profile was measured using the DNA microarray of Agilent. Specifically, the HepG2 cells were inoculated at a concentration of 2×10^5 cells/well into a 24-well plate, and were then cultured overnight. Thereafter, Compound 2 was dissolved in dimethyl sulfoxide (DMSO) to give concentrations of 1 μM and 10 μM, whereas Anacetrapib was dissolved in DMSO to give a concentration of […]. The thus prepared solution was added to the culture fluid in an amount of 1/1000-fold of the culture fluid. The cells were cultured at 37° C. for 24 hours in a CO2 incubator. Thereafter, 500 μL of ISOGEN (Nippon Gene Co., Ltd., Catalog No. 31-02501) was added to the culture, and total RNA was then extracted. Cy3-labeled cRNA was synthesized from 200 ng of the RNA using Low Input Quick Amp Labeling Kit (Agilent, Catalog No. 5190-2308). The synthesized Cy3-labeled cRNA was hybridized to Whole Human Genome (4×44K) (Agilent, Catalog No. G4110F), using GE Hybridization Buffer HI-RPM (Agilent, Catalog No. 5190-0403). After completion of the hybridization, the DNA microarray was washed with Gene Expression Wash Buffer (Agilent, Catalog No. 5188-5327), and data were then scanned with a scanner (Agilent).
(§2) The analysis was carried out using GeneSpring (Agilent), and the change rate of the expression level of each gene was calculated.
(§3) (Change rate)=(Expression level of each gene in cells treated with compound)[…](Expression level of each gene in cells untreated with compound)

[2] = tested on: NPC1L1 mRNA; assay: DNA microarray gene expression profile in HepG2 cells (Test Example 2), NPC1L1; type: cell-based, human; details: 24 hours, treated vs untreated cells
Method: as §1, §2, §3

| SMILES | Change rate (fold) of LIPG expression level ([1]; 10 μM) [fold] | Change rate (fold) of NPC1L1 expression level ([2]; 10 μM) [fold] | Change rate (fold) of LIPG expression level ([1]; 1 μM) [fold] | Change rate (fold) of NPC1L1 expression level ([2]; 1 μM) [fold] |
| --- | --- | --- | --- | --- |
| COc1cc(F)c(C(C)C)cc1-c1ccc(C(F)(F)F)cc1CN1C(=O)O[C@H](c2cc(C(F)(F)F)cc(C(F)(F)F)c2)[C@@H]1C [Anacetrapib, (4S,5R)-5-[3,5-bis(trifluoromethyl)phenyl]-3-((4′-fluoro-5′-isopropyl-2′-methoxy-4-(trifluoromethyl)-[1,1′-biphenyl]-2-yl)methyl)-4-methyloxazolidin-2-one, reference compound] | −1.9 | −1.5 | – | – |
| CCN(C[C@H]1CC[C@H](CC(=O)O)CC1)c1ccc(C(F)(F)F)cc1CN(c1ncc(OCCS(C)(=O)=O)cn1)[C@@H](C)c1cc(C(F)(F)F)cc(C(F)(F)F)c1 [Compound 2, (S)-(−)-trans-{4-[({2-[({1-[3,5-bis(trifluoromethyl)phenyl]ethyl}{5-[2-(methylsulfonyl)ethoxy]pyrimidin-2-yl}amino)methyl]-4-(trifluoromethyl)phenyl}(ethyl)amino)methyl]cyclohexyl}ac etic acid] | −6.2 | −3.1 | −2.5 | −2.3 |
